The text below walks through data of US20250084091A1, “INHIBITORS OF SARS-COV-2” (The Texas A&M University System, priority 2021, published 2025).

Data set [1] has as its system HeLa-ACE2 cells. The experiment in a line: cells. The class given is cell-based. The note with it: Table 2, total cell count in infected plates.
Data set [2] in a line: Uninfected host cell cytotoxicity counter screen. Type of data set: cell-based. The note with it: human. The method in brief: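 HeLa-ACE2 cells, uninfected, seeded at 400 cells/well with compounds and held 24 hours at 37° C., 5% CO2. Dead cells stained with Image-iT DEAD green, fixed in 4% paraformaldehyde, DAPI-counterstained and imaged. Data normalized to DMSO and 40 μM puromycin controls; concentration responses in triplicate.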
Background: A counterscreen serves to expose hits that act by an unwanted route or on another target.

Data set [3] has as its target SARS-CoV-2 main protease (Mpro) (Severe acute respiratory syndrome coronavirus 2, UniProt P0DTD1). Put plainly: biochemical.
Data set [4] relates to SARS-CoV-2 (strain USA-WA1/2020). The experiment in a line: microbe, parasite or virus in culture. The class given is cell-based.
Where [5] appears, read: Severe acute respiratory syndrome coronavirus 2, Table 2, SARS-CoV-2 infected HeLa-ACE2 cells, read-out: CoV-2 HeLa EC50.
Setting [6] is: Table 2, uninfected cells, 24 hours, read-out: Uninfected HeLa-ACE2 CC50.
Where [7] appears, read: Severe acute respiratory syndrome coronavirus 2, HeLa-ACE2, read-out: CoV-2 HeLa EC50, Table 2, SARS-CoV-2 infected HeLa-ACE2 cells.
[8] abbreviates: Table 3, select example compounds against mpro, read-out: Enzyme IC50.
Where [9] appears, read: Severe acute respiratory syndrome coronavirus 2, HeLa, Table 3, read-out: CoV-2 HeLa EC50.

pEC50, pIC50: −log10 of the molar value. Where two headings read alike, the source gives them in different places. Some results are limits rather than exact numbers.

The pEC50 is the negative decadic logarithm of the EC50, by convention in mol/L. By CC50 is commonly meant the concentration at which the toxic effect on the cells reaches its halfway point. What is called pIC50 is the negative decadic logarithm of the IC50, by convention in mol/L. With `Cc1c(Br)cncc1C(=O)N1CCN(C2c3ccccc3CCc3ccccc32)CC1` [ZS-346, (5-bromo-4-methyl-3-pyridyl)-[4-(2-tricyclo[9.4.0.03,8]pentadeca-1(11),3(8),4,6,12,14-hexaenyl)piperazin-1-yl]methanone], the negative logarithm of the EC50 (pEC50) in data set [1] is 5.69; in data set [4] (setting [5]), 5.97. In addition, the CC50 at 24 h in data set [2] was greater than 39.8 µM. For the same compound, the negative-log IC50 (pIC50) in data set [3] (Table 2, read-out: Enzyme IC50) is 6.57.
Regarding `Cc1cncc(C(=O)N2CC3CCC(C2)N3C(c2ccccc2)c2ccccc2)n1` [AA-658, (8-benzhydryl-3,8-diazabicyclo[3.2.1]octan-3-yl)-(6-methylpyrazin-2-yl)methanone], the values for the negative logarithm of the EC50 (pEC50) in data set [1] and in data set [4] (setting [7]) were less than 5.02 and 5.71, respectively. Besides, the CC50 at 24 h in data set [2] (setting [6]) is greater than 39.8 µM. Besides, in data set [3] (Enzyme IC50, Table 2), the pIC50 is 6.10.
For the compound `O=C(c1cc[nH]c(=O)c1)N1CCN(C(c2ccccc2)c2ccccc2)CC1` [NZ-769, 4-[4-(diphenylmethyl)piperazine-1-carbonyl]-1,2-dihydropyridin-2-one], the results for the negative-log EC50 (pEC50) in data set [1] and in data set [4] (setting [5]) were less than 5.02 and 5.09, respectively. The 50% cytotoxic concentration (CC50) at 24 h in data set [2] was greater than 39.8 µM. Further, the pIC50 in data set [3] (Table 2, read-out: Enzyme IC50) is 4.95.
Regarding `O=C(c1cncc2cc[nH]c12)N1CCC(=C2c3ccccc3CS(=O)(=O)c3ccccc32)CC1` [NZ-804, [4-(5,5-dioxo-6H-benzo[c][1]benzothiepin-11-ylidene)-1-piperidyl]-(1H-pyrrolo[3,2-c]pyridin-7-yl)methanone], the pEC50 in data set [1] is 6.79; in data set [4] (setting [9]) it was 7.82; in data set [4] (setting [5]), 7.82. In addition, the cytotoxic concentration (CC50) at 24 h in data set [2] was greater than 39.8 µM. Further, the negative logarithm of the IC50 (pIC50) in data set [3] (Table 2, read-out: Enzyme IC50) was 7.52; in data set [3] (setting [8]) it was 8.05.
As to `Cc1cc(C(=O)N2CCC(C(O)(c3ccccc3)c3ccccc3)CC2)c[n+]([O-])c1` [NZ-792, [4-[hydroxy(diphenyl)methyl]-1-piperidyl]-(5-methyl-1-oxo-3-pyridyl)methanone], the pEC50 in data set [1] and in data set [4] (setting [7]) was less than 5.02 throughout. This compound showed a CC50 at 24 h in data set [2] greater than 39.8 µM. Also, the pIC50 in data set [3] (Table 2, read-out: Enzyme IC50) is less than 5.00.
As to `COc1cncc(C(=O)N2CCN(C3c4ccccc4CCc4ccccc43)CC2)c1` [ZS-319, (5-methoxy-3-pyridyl)-[4-(2-tricyclo[9.4.0.03,8]pentadeca-1(11),3(8),4,6,12,14-hexaenyl)piperazin-1-yl]methanone], the pEC50 is less than 5.02 in data set [1] and 6.04 in data set [4] (setting [5]). In addition, the 50% cytotoxic concentration (CC50) at 24 h in data set [2] was 32.1 µM. The pIC50 in data set [3] (Table 2, read-out: Enzyme IC50) was 6.68.
Regarding `Cc1cncc(C(=O)N2CCN(C(c3ccccc3)c3ccccc3)CC2=O)c1` [AA-637, 4-benzhydryl-1-(5-methylnicotinoyl)piperazin-2-one], the negative logarithm of the EC50 (pEC50) in data set [1] and in data set [4] (setting [7]) was less than 5.02 throughout. This compound showed a CC50 at 24 h in data set [2] greater than 39.8 µM. Further, in data set [3] (Table 2, read-out: Enzyme IC50), the pIC50 is 7.05.
For the compound `O=C(c1cncc(Br)c1)N1CCC(C(O)(c2ccccc2)c2ccccc2)CC1` [NZ-770, [1-(5-bromopyridine-3-carbonyl)piperidin-4-yl]diphenylmethanol], the negative logarithm of the EC50 (pEC50) in data set [1] is less than 5.02; in data set [4] (setting [5]), 6.29. In data set [2], the CC50 at 24 h is greater than 39.8 µM. The negative logarithm of the IC50 (pIC50) in data set [3] (Table 2, read-out: Enzyme IC50) is 6.42.
Taken in the same sequence, the figures for `Cc1cncc(C(=O)N2CCN(C(c3ccccc3)c3ccccc3S(C)(=O)=O)CC2)c1` (stereo not drawn) [NZ-807, (5-methyl-3-pyridyl)-[4-[(2-methylsulfonylphenyl)-phenyl-methyl]piperazin-1-yl]methanone] were less than 5.02, 5.70, greater than 39.8 µM and 6.21.
For `O=S1(=O)Cc2ccccc2C(N2CCC(C(O)c3cccnc3)CC2)c2ccccc21` (stereo not drawn) [NZ-806, [1-(5,5-dioxo-6,11-dihydrobenzo[c][1]benzothiepin-11-yl)-4-piperidyl]-(3-pyridyl)methanol], the pEC50 in data set [1] and in data set [4] (setting [7]) was less than 5.02 throughout. The compound also yielded a CC50 at 24 h in data set [2] greater than 39.8 µM. Moreover, the pIC50 in data set [3] (Table 2, read-out: Enzyme IC50) was 4.72.
With `Cc1cncc(C(=O)N2CCN(C(c3ccccc3)c3ccsc3)CC2)c1` (stereo not drawn) [MKP-1222, 1-(5-methylpyridine-3-carbonyl)-4-[phenyl(thiophen-3-yl)methyl]piperazine], the pEC50 in data set [1] is 5.91; in data set [4] (setting [5]) it was 5.85. This compound yielded a CC50 at 24 h in data set [2] greater than 39.8 µM. In data set [3] (Table 2, read-out: Enzyme IC50), the negative logarithm of the IC50 (pIC50) was 6.43.
With `O=C(c1cncc2nc[nH]c12)N1CCC(=C2c3ccccc3CS(=O)(=O)c3ccccc32)CC1` [NZ-803, [4-(5,5-dioxo-6H-benzo[c][1]benzothiepin-11-ylidene)-1-piperidyl]-(1H-imidazo[4,5-c]pyridin-7-yl)methanone], the negative logarithm of the EC50 (pEC50) in data set [1] is 6.49; in data set [4] (setting [5]) it was 6.74. In data set [2], this compound had a CC50 at 24 h greater than 39.8 µM. The negative logarithm of the IC50 (pIC50) in data set [3] (Table 2, read-out: Enzyme IC50) is 7.04.
For `O=C(c1cccnc1)N1CCN(C(c2ccccc2)c2ccsc2)CC1` (stereo not drawn) [MKP-1215, 1-[phenyl(thiophen-3-yl)methyl]-4-(pyridine-3-carbonyl)piperazine] the same measures were less than 5.02, 5.55, greater than 39.8 µM and 5.35.
For `O=C(c1cccnc1)N1CCN(C2c3ccccc3CCc3ccccc32)CC1` [ZS-312, 3-pyridyl-[4-(2-tricyclo[9.4.0.03,8]pentadeca-1(11),3(8),4,6,12,14-hexaenyl)piperazin-1-yl]methanone], the results for the pEC50 in data set [1] and in data set [4] (setting [5]) were less than 5.02 and 5.98, respectively. The same compound had a CC50 at 24 h in data set [2] greater than 39.8 µM. For the same compound, in data set [3] (Table 2, read-out: Enzyme IC50), the negative logarithm of the IC50 (pIC50) is 6.36.
For the compound `O=C(c1cncc2cc[nH]c12)N1CCN(C2c3ccccc3CS(=O)(=O)c3ccccc32)CC1` (stereo not drawn) [NZ-808, [4-(5,5-dioxo-6,11-dihydrobenzo[c][1]benzothiepin-11-yl)piperazin-1-yl]-(1H-pyrrolo[3,2-c]pyridin-7-yl)methanone], the pEC50 in data set [1] is 7.52; in data set [4] (setting [9]), 7.60; in data set [4] (setting [5]) it was 7.60. The 50% cytotoxic concentration (CC50) at 24 h in data set [2] was greater than 39.8 µM. In addition, the pIC50 in data set [3] (Table 2, read-out: Enzyme IC50) was 7.49; in data set [3] (setting [8]) it was 8.00.
With `O=C(c1cncc(F)c1)N1CCN(C2c3ccccc3CCc3ccccc32)CC1` [ZS-318, (5-fluoro-3-pyridyl)-[4-(2-tricyclo[9.4.0.03,8]pentadeca-1(11),3(8),4,6,12,14-hexaenyl)piperazin-1-yl]methanone], the figures for the pEC50 in data set [1] and in data set [4] (setting [5]) were less than 5.02 and 6.15, respectively. Also, the cytotoxic concentration (CC50) at 24 h in data set [2] is greater than 39.8 µM. Also, the pIC50 in data set [3] (Table 2, read-out: Enzyme IC50) was 6.82.
With `O=C(c1cccnc1)N1C2CCC1CN(C(c1ccccc1)c1ccccc1)C2` [AA-597, (3-benzhydryl-3,8-diazabicyclo[3.2.1]octan-8-yl)(pyridin-3-yl)methanone], the pEC50 in data set [1] and in data set [4] (setting [7]) was less than 5.02 each time. Besides, in data set [2] (setting [6]), the CC50 at 24 h was greater than 39.8 µM. For the same compound, the negative-log IC50 (pIC50) in data set [3] (Enzyme IC50, Table 2) is 5.41.
As for `O=C(c1cnccc1Cl)N1CCN(C(c2ccccc2)c2ccccc2)CC1` [AA-605, (4-benzhydrylpiperazin-1-yl)(4-chloropyridin-3-yl)methanone], the pEC50 in data set [1] was 5.14; in data set [4] (setting [5]), 5.52. This compound also yielded a CC50 at 24 h in data set [2] greater than 39.8 µM. The pIC50 in data set [3] (Table 2, read-out: Enzyme IC50) is 5.89.
`O=C(c1cncc2nc[nH]c12)N1CCN(C2c3ccccc3CS(=O)(=O)c3ccccc32)CC1` (stereo not drawn) [NZ-810, [4-(5,5-dioxo-6,11-dihydrobenzo[c][1]benzothiepin-11-yl)piperazin-1-yl]-(1H-imidazo[4,5-c]pyridin-7-yl)methanone]: the pEC50 in data set [1] is 6.36; in data set [4] (setting [5]), 6.32. In data set [2], this compound displayed a CC50 at 24 h greater than 39.8 µM. Besides, the pIC50 in data set [3] (Table 2, read-out: Enzyme IC50) is 7.12.
For `O=C(c1cncc(Cl)c1)N1CCN(C(c2ccccc2)c2cccc(F)c2)CC1` (stereo not drawn) [MKP-1227, 1-(5-chloropyridine-3-carbonyl)-4-[(3-fluorophenyl)(phenyl)methyl]piperazine] the same measures were 6.21, 6.34, greater than 39.8 µM and 7.06.
Consider `Cc1cncc(C(=O)N2CCN(C(c3cccnc3)c3cccc(F)c3)CC2)c1` (stereo not drawn) [MKP-1290, 1-[(3-fluorophenyl)(pyridin-3-yl)methyl]-4-(5-methylpyridine-3-carbonyl)piperazine], for which the pEC50 in data set [1] was 6.73; in data set [4] (setting [9]) it was 6.98; in data set [4] (setting [5]), 6.98. Moreover, in data set [2], the CC50 at 24 h was greater than 39.8 µM. Also, the pIC50 in data set [3] (Table 2, read-out: Enzyme IC50) was 7.02; in data set [3] (setting [8]) it was 7.02.
Regarding `COc1cncc(C(=O)N2CCN(C(c3ccccc3)c3cccnc3)CC2)c1` (stereo not drawn) [MKP-1194, 1-(5-methoxypyridine-3-carbonyl)-4-[phenyl(pyridin-3-yl)methyl]piperazine], the negative logarithm of the EC50 (pEC50) in data set [1] was less than 5.02; in data set [4] (setting [5]), 5.67. This compound showed a cytotoxic concentration (CC50) at 24 h in data set [2] greater than 39.8 µM. The pIC50 in data set [3] (Table 2, read-out: Enzyme IC50) is 5.96.
With `O=C(c1cncc(Br)c1)N1CCN(C(c2ccccc2)c2ccsc2)CC1` (stereo not drawn) [MKP-1220, 1-(5-bromopyridine-3-carbonyl)-4-[phenyl(thiophen-3-yl)methyl]piperazine], the negative-log EC50 (pEC50) is 5.58 in data set [1] and 6.05 in data set [4] (setting [5]). The compound also came in with a cytotoxic concentration (CC50) at 24 h in data set [2] greater than 39.8 µM. Besides, in data set [3] (Table 2, read-out: Enzyme IC50), the negative logarithm of the IC50 (pIC50) is 6.60.
Turning to `O=C1CC(C(=O)N2CCN(C3c4ccccc4CCc4ccccc43)CC2)c2ccccc2N1` (stereo not drawn) [ZS-324, 4-[4-(2-tricyclo[9.4.0.03,8]pentadeca-1(11),3(8),4,6,12,14-hexaenyl)piperazine-1-carbonyl]-3,4-dihydro-1H-quinolin-2-one], the negative-log EC50 (pEC50) is less than 5.02 in data set [1] and 5.55 in data set [4] (setting [5]). Moreover, half-maximal cytotoxicity in data set [2] (CC50 at 24 h) was put at 21.1 µM. For the same compound, the pIC50 in data set [3] (Table 2, read-out: Enzyme IC50) was 6.27.
